Earlier results on five compounds are cited in EP2168584A1, “PHARMACEUTICAL COMPOSITION COMPRISING THE COMBINATION OF A TRIAZOLOBENZODIAZEPINE AND A SELECTIVE SEROTONIN REUPTAKE INHIBITOR” (World Trade Import-Export, WTIE A.G., priority 2007, dated 2009).

The conditions of data set [1]: relative to the therapeutic activity of Alprazolam.

Where two headings read alike, the source gives them in different places. Some results are limits rather than exact numbers.

For the compound `CN[C@H]1CC[C@@H](c2ccc(Cl)c(Cl)c2)c2ccccc21` [Sertraline], in the data set on plasma proteins, the “degree of fixation of plasma proteins” value is given as “especially high”.
Regarding `CNCCC(Oc1ccc(C(F)(F)F)cc1)c1ccccc1` (stereo not drawn) [Fluoxetine], the “degree of fixation of plasma proteins” value in the data set on plasma proteins is reported as “especially high”.
For `Fc1ccc([C@@H]2CCNC[C@H]2COc2ccc3c(c2)OCO3)cc1` [Paroxetine], the “degree of fixation of plasma proteins” value in the data set on plasma proteins was “especially high”. Moreover, in the data set with plasma proteins (plasma), the “binds to plasma proteins” value is reported as 95%. The elimination half-life is no more than 36 h (elderly and severe hepatic failure patients); 21 h (human, in vivo). In addition, where the note is “first-step metabolism”, the oral bioavailability is given as 50%. The dose metabolized entry (mainly in the liver, inactive metabolites) is on record as “More than 95%”.
On to `Cc1nnc2n1-c1ccc(Cl)cc1C(c1ccccc1)=NC2` [Alprazolam], for which, for the setting “human, in vivo”, the “half-life of plasma elimination, range” value was 6.3 to 26.9 h. Also, under “human, in vivo, po”, the “Maximum plasma concentrations are obtained (time after administration)” value was 1 to 2 h. For the same compound, in the data set with human serum proteins, the “bound to human serum proteins” value is 80%.
Regarding `OCc1nnc2n1-c1ccc(Cl)cc1C(c1ccccc1)=NC2` [alpha-hydroxy-alprazolam], the “biological activity of metabolite” value in data set [1] is “approximately to half of the therapeutic activity of Alprazolam”.
